Consider 20 compounds from patent US20240366571A1, “MODULATORS OF SK4 POTASSIUM CHANNEL AND USES THEREOF” (Ramot at Tel-Aviv University Ltd., priority 2022, published 2024).

This experiment concerns the target T1, human SK4 (Homo sapiens, UniProt O15554).
T1 construct: expressed in transfected cells; host or cells: CHO cells
Nature of the experiment: Whole-cell patch-clamp of WT SK4 K+ currents in transfected CHO cells. It counts as cell-based. As to conditions: WT SK4 currents in absence and presence of 20 μM compound. The method, then:
Constructs: For CHO cell transfection, the following were cloned: human SK1, rat SK2, human SK3, and rat calmodulin into the pcDNA3 vector, human SK4 into pEGFP-C1 vector, and PIP4,5-kinase into an IRES-dsRed plasmid. The mutations were introduced using the PCR-based QuikChange™ site-directed mutagenesis (Stratagene®) and were verified by full sequencing of the entire plasmid vector.
Cell Culture and Transfection: Chinese hamster ovary (CHO) cells were grown in Dulbecco's modified Eagle's medium supplemented with 2 millimolar (mM) glutamine, 10% fetal calf serum, and antibiotics. In brief, 40,000 cells seeded on poly-L-lysine-coated glass coverslips (13 millimeter (mm) in diameter) in a 24-multiwell plate were transfected with 0.5 microgram (μg) pEGFP-SK4/0.5 μg mutant SK4, 1.2 μg dsRed-PIP4,5-kinase or with 1 μg SK1/SK2/SK3 together with pIRES-CD8 (0.3 μg) as a marker for transfection. Transfection was performed using TransIT-LT1 Transfection Reagent (Mirus Bio) according to the manufacturer's protocol. For electrophysiology, transfected cells were visualized approximately 40 hours after transfection with a Zeiss Axiovert 35 inverted florescence microscope.
Whole-cell patch-clamp recording: Voltage-clamp recordings were performed using the whole-cell configuration of the patch-clamp technique. Signals were amplified using an […] patch-clamp amplifier (Molecular Devices), sampled at 5 kHz and filtered at 2.4 kHz via a four pole Bessel low pass filter. Data were acquired using pClamp™ 10.5 software in conjunction with an Axon™ DigiData® 1440A interface (Molecular Devices). The patch pipettes were pulled from borosilicate glass (Harvard Apparatus) with a resistance of 3-5 megaohms (MΩ). The intracellular pipette solution contained 130 mM KCl, 5 mM EGTA, 10 mM HEPES, pH 7.3 (adjusted with KOH), and CaCl2 calculated for a final concentration of 1 μM free-Ca^2+, by MAXCHELATOR (WEBMAXC STANDARD) software, with sucrose added to adjust osmolarity to 290 mosM. The external solution (310 mosM) contained 140 mM NaCl, 4 mM KCl, 1.8 mM CaCl2, 1.2 mM MgCl2, 11 mM glucose, and 5.5 mM HEPES adjusted with NaOH to pH 7.3. CHO cells were held at −90 millivolt (mV) and SK4 K^+ currents were activated using a voltage ramp protocol from −100 mV to +60 mV for 150 milliseconds. Electrophysiological data analysis was performed using the Clampfit program (pClamp™ 10.5; Molecular Devices).
Some of the compounds were tested by comparing trace of WT SK4 channel currents in the absence and presence of 20 μM of the tested compound.

For the compound `CCCCCCCn1c(=O)n(CCCCCCC)c2cc(C)ccc21` [BA29, 1,3-diheptyl-5-methyl-1,3-dihydro-2H-benzo[d]imidazol-2-one], the “SK4 K+ channel modulating activity” value is given as “Inactive”. Consider `CCCCCn1c(=O)n(CCCCC)c2cc(C)ccc21` [BA23, 5-methyl-1,3-dipentyl-1,3-dihydro-2H-benzo[d]imidazol-2-one], for which the “SK4 K+ channel modulating activity” value is reported as “Inactive”. With `CCCCCCCn1c(=O)n(CCCCCCC)c2cc(F)ccc21` [BA69, 5-fluoro-1,3-diheptyl-1,3-dihydro-2H-benzo[d]imidazol-2-one], the “SK4 K+ channel modulating activity” value is listed as “Inactive”. For the compound `CCCCCCn1c(=O)n(CCCCCC)c2cc(C)ccc21` [BA26, 1,3-dihexyl-5-methyl-1,3-dihydro-2H-benzo[d]imidazol-2-one], the “SK4 K+ channel modulating activity” value is “Inactive”. The entry for `CCCCCCCCCCCCn1c(=O)n(CCCCCCCCCCCC)c2ccccc21` [BA9A, 1,3-didodecyl-1,3-dihydro-2H-benzo[d]imidazol-2-one] is “Inactive”; for `CCCCCCn1c(=O)n(CCCCCC)c2cc(Cl)c(Cl)cc21` [BA44, 5,6-dichloro-1,3-dihexyl-1,3-dihydro-2H-benzo[d]imidazol-2-one] it is “Inactive”; for `CCCCCn1c(=O)n(CCCCC)c2ccccc21` [BA4A, 1,3-dipentyl-1,3-dihydro-2H-benzo[d]imidazol-2-one] it is “Inactive”. Regarding `CCCCCCCCn1c(=O)[nH]c2ccccc21` [BA7B, 1-octyl-1,3-dihydro-2H-benzo[d]imidazol-2-one], the “SK4 K+ channel modulating activity” value is reported as “Inactive”. The entry for `CCCCCCCCCCn1c(=O)[nH]c2ccccc21` [BA8B, 1-decyl-1,3-dihydro-2H-benzo[d]imidazol-2-one] is “Inactive”. Turning to `CCCCCCCCCCn1c(=O)n(CCCCCCCCCC)c2ccccc21` [BA8A, 1,3-didecyl-1,3-dihydro-2H-benzo[d]imidazol-2-one], the “SK4 K+ channel modulating activity” value is reported as “Inactive”.

Take `Cc1ccc2c(c1)n(C)c(=O)n2C` [BA2OC1c, 1,3,5-trimethyl-1,3-dihydro-2H-benzo[d]imidazol-2-one]: the “SK4 K+ channel modulating activity” value is recorded as “Inactive”.

Consider `Cc1ccc2[nH]c(=O)[nH]c2c1` [BA20, 5-methyl-1,3-dihydro-2H-benzo[d]imidazol-2-one], for which the “SK4 K+ channel modulating activity” value is reported as “Inactive”. Under `CCCCCCCn1c(=O)n(CCCCCCC)c2cc(Cl)c(Cl)cc21` [BA46, 5,6-dichloro-1,3-diheptyl-1,3-dihydro-2H-benzo[d]imidazol-2-one] stands “Inactive”; under `CCCCCn1c(=O)n(CCCCC)c2cc(F)ccc21` [BA63, 5-fluoro-1,3-dipentyl-1,3-dihydro-2H-benzo[d]imidazol-2-one], “Inactive”. Turning to `CCCCCCCn1c(=O)n(CCCCCCC)c2cc(C)c(C)cc21` [BA56, 1,3-diheptyl-5,6-dimethyl-1,3-dihydro-2H-benzo[d]imidazol-2-one], the “SK4 K+ channel modulating activity” value is recorded as “Inactive”.

Consider `Cn1c(=O)n(C)c2ccccc21` [BA2A, 1,3-dimethyl-1,3-dihydro-2H-benzo[d]imidazol-2-one], for which the “SK4 K+ channel modulating activity” value is “Inactive”. Under `CCCCCCn1c(=O)n(CCCCCC)c2ccccc21` [BA5A, 1,3-dihexyl-1,3-dihydro-2H-benzo[d]imidazol-2-one] stands “Inactive”; under `CCCCCCCCn1c(=O)n(CCCCCCCC)c2ccccc21` [BA7A, 1,3-dioctyl-1,3-dihydro-2H-benzo[d]imidazol-2-one], “Inactive”; under `CCCn1c(=O)n(CCC)c2ccccc21` [BA3A, 1,3-dipropyl-1,3-dihydro-2H-benzo[d]imidazol-2-one], “Inactive”. For the compound `CCCCCn1c(=O)n(CCCCC)c2cc(Cl)c(Cl)cc21` [BA42, 5,6-dichloro-1,3-dipentyl-1,3-dihydro-2H-benzo[d]imidazol-2-one], the “SK4 K+ channel modulating activity” value is listed as “Inactive”.
